Results published in US5466673A, “Method of inhibiting calcium precipitation in an intraocular irrigating solution” (Senju Pharmaceutical Co., Ltd., priority 1993, dated 1995).

Tested on: blood-aqueous barrier of the eye
Test: Effect of the present compound on the blood-aqueous barrier of the eye (anterior chamber irrigation, carboxy-fluorescein leakage)
Type: in vivo, White rabbits
Conditions: mean ± S.E.
Description: White rabbits weighing about 2.5 kg were used.
Physiological saline, 0.06, 0.6 and 6 mM solutions of DCE-GS in physiological saline, and a 0.3 mM solution of GSSG (oxidized glutathione)in physiological saline were used as intraocular irrigating solutions and their effects on the blood-aqueous barrier of the eye were evaluated.
Two 23 G needles connected to a polyethylene tube were gently inserted into the anterior chamber of the eye of rabbits under anesthesia (ketamine hydrochloride: xylazine hydrochloride=1:1) and 0.5 ml/kg of 1% carboxy-fluorescein was injected into the auricular vein immediately before irrigation. Using a syringe pump, the intraocular irrigating solution was infused at the rate of 1.5 ml/min. and 25 μl of the outflowing intraocular irrigating solution and the blood were respectively collected at 15-minute intervals over the period of 1 hour and the intensity of florescence of each sample was determined with a spectrophotofluorometer. The collected blood was mixed with 2.5 ml of physiological saline and the mixture was centrifuged at 3000 rpm to separate the supernatant for use as a sample.
The degree (4) of protein leakage was calculated by means of the following equation. (Intensity of fluorescence of irrigating solution/intensity of fluorescence of blood)×100 (%)

| Compound | degree of protein leakage (0.06 mM in physiological saline, irrigation 1.5 ml/min, time 15 min, n 7) | degree of protein leakage (0.06 mM in physiological saline, time 30 min, n 7) | degree of protein leakage (0.06 mM in physiological saline, time 45 min, n 7) | degree of protein leakage (0.06 mM in physiological saline, time 60 min, n 7) | degree of protein leakage (0.6 mM in physiological saline, time 15 min, n 8) | degree of protein leakage (0.6 mM in physiological saline, time 30 min, n 8) | degree of protein leakage (0.6 mM in physiological saline, time 45 min, n 8) | degree of protein leakage (0.6 mM in physiological saline, time 60 min, n 8) | degree of protein leakage (6 mM in physiological saline, time 15 min, n 5) | degree of protein leakage (6 mM in physiological saline, time 30 min, n 5) | degree of protein leakage (6 mM in physiological saline, time 45 min, n 5) | degree of protein leakage (6 mM in physiological saline, time 60 min, n 5) | degree of protein leakage (0.3 mM in physiological saline, time 15 min, n 5) | degree of protein leakage (0.3 mM in physiological saline, time 30 min, n 5) | degree of protein leakage (0.3 mM in physiological saline, time 45 min, n 5) | degree of protein leakage (0.3 mM in physiological saline, time 60 min, n 5) |
| --- | --- | --- | --- | --- | --- | --- | --- | --- | --- | --- | --- | --- | --- | --- | --- | --- |
| N[C@@H](CCC(=O)N[C@@H](CSC(CC(=O)O)C(=O)O)C(=O)NCC(=O)O)C(=O)O (stereo partly drawn) [DCE-GS, S-(α,β-dicarboxyethyl) glutathione] | 0.16 ± 0.02% | 0.23 ± 0.05% | 0.11 ± 0.05% | 0.18 ± 0.03% | 0.13 ± 0.01% | 0.19 ± 0.02% | 0.15 ± 0.02% | 0.13 ± 0.02% | 0.13 ± 0.02% | 0.16 ± 0.02% | 0.22 ± 0.04% | 0.15 ± 0.02% |  |  |  |  |
| oxidized glutathione [GSSG, reference compound] |  |  |  |  |  |  |  |  |  |  |  |  | 0.22 ± 0.03% | 0.17 ± 0.01% | 0.15 ± 0.03% | 0.15 ± 0.03% |
